Tests used:
Assay type in all cases: in vivo
Chilo suppressalis = assay: Example B1: activity against Chilo suppressalis (striped rice stemborer), artificial diet; conditions: 144 h, 200 ppm, L2 larvae, 6 days after infestation, read-out: control (at least one of mortality, anti-feedant effect, growth inhibition)
Summary of the method: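 First, artificial diet was treated with aqueous solutions prepared from 10'000 ppm DMSO stocks; second, after drying, L2 larvae (6-8/well) were added; third, effects were assessed at 6 days against untreated controls, counting control when any of three categories was higher.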

Diabrotica balteata = assay: Example B2: activity against Diabrotica balteata (corn root worm), maize sprouts; conditions: 96 h, L2 larvae, 4 days after infestation, read-out: effect in at least one of the two categories (mortality or growth inhibition)
Summary of the method: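 Maize sprouts on agar were sprayed with aqueous test solutions made from 10′000 ppm DMSO stocks, dried, then infested with 6–10 L2 larvae per well. Mortality and growth inhibition were scored against untreated samples 4 days after infestation, at an application rate of 200 ppm.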

Euschistus heros = assay: Example B3: activity against Euschistus heros (neotropical brown stink bug), soybean leaves; conditions: 120 h, N2 nymphs, 5 days after infestation, read-out: effect in at least one of the two categories (mortality or growth inhibition)
Description: Soybean leaves on agar in 24-well microtiter plates were sprayed with aqueous test solutions prepared from 10′000 ppm DMSO stock solutions. After drying the leaves were infested with N2 nymphs. The samples were assessed for mortality and growth inhibition in comparison to untreated samples 5 days after infestation. The following compounds gave an effect of at least 80% in at least one of the two categories (mortality or growth inhibition) at an application rate of 200 ppm: […]

Myzus persicae [1] = assay: Example B4: activity against Myzus persicae (green peach aphid), intrinsic activity; conditions: 120 h, test rate 12 ppm, 5 days after infestation
Summary of the method: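 Compounds from 10′000 ppm DMSO stocks were mixed into sucrose solution in 24-well plates sealed with Parafilm. Aphid-infested pea seedlings were set on the membrane and the plate inverted so aphids fed through it. Mortality scored 5 days after infestation.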

Plutella xylostella = assay: Example B5: activity against Plutella xylostella (diamond back moth), artificial diet, eggs; conditions: 192 h, 8 days after infestation, read-out: effect in at least one of the two categories (mortality or growth inhibition)
Summary of the method: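 Artificial diet in 24-well plates was treated with aqueous dilutions of DMSO stocks, dried, then infested with Plutella eggs. Mortality and growth inhibition were scored against untreated samples 8 days after infestation; application rate 200 ppm.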

Spodoptera littoralis = assay: Example B6: activity against Spodoptera littoralis (Egyptian cotton leaf worm), cotton leaf discs; conditions: foliar, 72 h, 200 ppm, L1 larvae, 3 days after infestation, read-out: control (at least one of mortality, anti-feedant effect, growth inhibition)
Summary of the method: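 Five L1 larvae per sprayed, dried cotton leaf disc on agar. Activity is counted when mortality, anti-feedant effect or growth inhibition exceeds the untreated sample at day 3.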

Pseudoplusia includens = assay: Example B9: Pseudoplusia includens (soybean looper), larvicide, feeding/contact, soybean plants; conditions: Chrysodeixis includens, 120 h; 50 ppm; L2 larvae; 5 days after infestation; read-out: effect in at least one of the two categories (mortality or growth inhibition)
Description: Soybean plants were treated in a spray chamber, cut off and placed into petri dishes containing wet filter paper. 1d after application leaves were infested with 5 L2 larvae and covered with a fabric filter and plastic lids. 5 days after infestation the samples were assessed for mortality and growth inhibition. The following compounds gave an effect of at least 80% in at least one of the two categories (mortality or growth inhibition) at an application rate of 50 ppm: […]

Myzus persicae [2] = assay: Example B7b: Myzus persicae feeding/contact activity, eggplant leaf discs; conditions: foliar, 144 h, mixed ages, 6 days after infestation
Description: Eggplant leaf discs were placed onto agar in a 24-well microtiter plate and sprayed with aqueous test solutions prepared from 10′000 ppm DMSO stock solutions. After drying, the leaf discs were infested with an aphid population of mixed ages. The samples were assessed for mortality 6 days after infestation.

CNC(=O)c1cc(-n2ncnc2[C@H](C)Nc2ncnc3c(S(=O)(=O)C(F)(F)F)cc(Cl)cc23)ncn1 [Compound P60, 6-[5-[(1S)-1-[[6-chloro-8-(trifluoromethylsulfonyl)quinazolin-4-yl]amino]ethyl]-1,2,4-triazol-1-yl]-N-methyl-pyrimidine-4-carboxamide]
≥ 80%: percent control (mortality, anti-feedant effect or growth inhibition) at 200 ppm (Chilo suppressalis) | percent effect (mortality or growth inhibition) at 200 ppm (Diabrotica balteata) | percent effect (mortality or growth inhibition) at 200 ppm (Euschistus heros) | mortality at 12 ppm (Myzus persicae [1]) | percent effect (mortality or growth inhibition) at 200 ppm (Plutella xylostella) | percent control (mortality, anti-feedant effect or growth inhibition) at 200 ppm (Spodoptera littoralis) | percent effect (mortality or growth inhibition) at 50 ppm (Pseudoplusia includens)

C[C@H](Nc1ncnc2c(Br)cc(Br)cc12)c1ncnn1-c1cc(C#N)ncn1 [Compound P41, 6-[5-[(1S)-1-[(6,8-dibromoquinazolin-4-yl)amino]ethyl]-1,2,4-triazol-1-yl]pyrimidine-4-carbonitrile]
≥ 80%: percent control (mortality, anti-feedant effect or growth inhibition) at 200 ppm (Chilo suppressalis) | percent effect (mortality or growth inhibition) at 200 ppm (Diabrotica balteata) | percent effect (mortality or growth inhibition) at 200 ppm (Plutella xylostella) | percent control (mortality, anti-feedant effect or growth inhibition) at 200 ppm (Spodoptera littoralis) | mortality at 200 ppm (Myzus persicae [2])

C[C@@H](c1ncnn1-c1cc(C(N)=O)ncn1)N(C)c1ncnc2c(I)cc(Cl)cc12 [Compound P47, 6-[5-[(1S)-1-[(6-chloro-8-iodo-quinazolin-4-yl)-methyl-amino]ethyl]-1,2,4-triazol-1-yl]pyrimidine-4-carboxamide]
≥ 80%: percent control (mortality, anti-feedant effect or growth inhibition) at 200 ppm (Chilo suppressalis) | percent effect (mortality or growth inhibition) at 200 ppm (Diabrotica balteata) | percent effect (mortality or growth inhibition) at 200 ppm (Euschistus heros) | mortality at 12 ppm (Myzus persicae [1]) | percent effect (mortality or growth inhibition) at 200 ppm (Plutella xylostella) | percent control (mortality, anti-feedant effect or growth inhibition) at 200 ppm (Spodoptera littoralis) | percent effect (mortality or growth inhibition) at 50 ppm (Pseudoplusia includens)

CNC(=O)c1cc(-n2ncnc2[C@H](C)N(C)c2ncnc3c(Cl)cc(C(F)(F)F)cc23)ncn1 [Compound P15, 6-[5-[(1S)-1-[[8-chloro-6-(trifluoromethyl)quinazolin-4-yl]-methyl-amino]ethyl]-1,2,4-triazol-1-yl]-N-methyl-pyrimidine-4-carboxamide]
≥ 80%: percent control (mortality, anti-feedant effect or growth inhibition) at 200 ppm (Chilo suppressalis) | percent effect (mortality or growth inhibition) at 200 ppm (Diabrotica balteata) | percent effect (mortality or growth inhibition) at 200 ppm (Euschistus heros) | mortality at 12 ppm (Myzus persicae [1]) | percent effect (mortality or growth inhibition) at 200 ppm (Plutella xylostella) | percent control (mortality, anti-feedant effect or growth inhibition) at 200 ppm (Spodoptera littoralis) | percent effect (mortality or growth inhibition) at 50 ppm (Pseudoplusia includens)

CNC(=O)c1cnc(-n2ncnc2[C@H](C)Nc2ncnc3c(C(F)(F)F)cc(Cl)cc23)s1 [Compound P7, 2-[5-[(1S)-1-[[6-chloro-8-(trifluoromethyl)quinazolin-4-yl]amino]ethyl]-1,2,4-triazol-1-yl]-N-methyl-thiazole-5-carboxamide]
≥ 80%: percent control (mortality, anti-feedant effect or growth inhibition) at 200 ppm (Chilo suppressalis) | percent effect (mortality or growth inhibition) at 200 ppm (Diabrotica balteata) | percent effect (mortality or growth inhibition) at 200 ppm (Euschistus heros) | percent effect (mortality or growth inhibition) at 200 ppm (Plutella xylostella) | percent control (mortality, anti-feedant effect or growth inhibition) at 200 ppm (Spodoptera littoralis)

C[C@H](Nc1ncnc2c(I)cc(Cl)cc12)c1ncnn1-c1cnc(C(N)=O)cn1 [Compound P75, 5-[5-[(1S)-1-[(6-chloro-8-iodo-quinazolin-4-yl)amino]ethyl]-1,2,4-triazol-1-yl]pyrazine-2-carboxamide]
≥ 80%: percent control (mortality, anti-feedant effect or growth inhibition) at 200 ppm (Chilo suppressalis) | percent effect (mortality or growth inhibition) at 200 ppm (Diabrotica balteata) | percent effect (mortality or growth inhibition) at 200 ppm (Euschistus heros) | mortality at 12 ppm (Myzus persicae [1]) | percent effect (mortality or growth inhibition) at 200 ppm (Plutella xylostella) | percent control (mortality, anti-feedant effect or growth inhibition) at 200 ppm (Spodoptera littoralis)

C[C@H](Nc1ncnc2c(C(F)(F)F)cc(Cl)cc12)c1ncnn1-c1cc(C(=O)N(C)C)ncn1 [Compound P30, 6-[5-[(1S)-1-[[6-chloro-8-(trifluoromethyl)quinazolin-4-yl]amino]ethyl]-1,2,4-triazol-1-yl]-N,N-dimethyl-pyrimidine-4-carboxamide]
≥ 80%: percent control (mortality, anti-feedant effect or growth inhibition) at 200 ppm (Chilo suppressalis) | percent effect (mortality or growth inhibition) at 200 ppm (Diabrotica balteata) | mortality at 12 ppm (Myzus persicae [1]) | percent effect (mortality or growth inhibition) at 200 ppm (Plutella xylostella) | percent control (mortality, anti-feedant effect or growth inhibition) at 200 ppm (Spodoptera littoralis) | mortality at 200 ppm (Myzus persicae [2]) | percent effect (mortality or growth inhibition) at 50 ppm (Pseudoplusia includens)

C[C@@H](c1ncnn1-c1cc(C(=O)N(C)C)ncn1)N(C)c1ncnc2c(C(F)(F)F)cc(Cl)cc12 [Compound P82, 6-[5-[(1S)-1-[[6-chloro-8-(trifluoromethyl)quinazolin-4-yl]-methyl-amino]ethyl]-1,2,4-triazol-1-yl]-N,N-dimethyl-pyrimidine-4-carboxamide]
≥ 80%: percent effect (mortality or growth inhibition) at 200 ppm (Diabrotica balteata) | mortality at 12 ppm (Myzus persicae [1]) | percent effect (mortality or growth inhibition) at 200 ppm (Plutella xylostella) | percent control (mortality, anti-feedant effect or growth inhibition) at 200 ppm (Spodoptera littoralis) | mortality at 200 ppm (Myzus persicae [2])

C[C@@H](c1ncnn1-c1cc(C(N)=O)ncn1)N(C)c1ncnc2c(Cl)cc(C(F)(F)F)cc12 [Compound P51, 6-[5-[(1S)-1-[[8-chloro-6-(trifluoromethyl)quinazolin-4-yl]-methyl-amino]ethyl]-1,2,4-triazol-1-yl]pyrimidine-4-carboxamide]
≥ 80%: percent control (mortality, anti-feedant effect or growth inhibition) at 200 ppm (Chilo suppressalis) | percent effect (mortality or growth inhibition) at 200 ppm (Diabrotica balteata) | percent effect (mortality or growth inhibition) at 200 ppm (Euschistus heros) | mortality at 12 ppm (Myzus persicae [1]) | percent effect (mortality or growth inhibition) at 200 ppm (Plutella xylostella) | percent control (mortality, anti-feedant effect or growth inhibition) at 200 ppm (Spodoptera littoralis)

C[C@H](Nc1ncnc2c(Cl)cc(C(F)(F)F)cc12)c1ncnn1-c1ncc(C(N)=O)s1 [Compound P35, 2-[5-[(1S)-1-[[8-chloro-6-(trifluoromethyl)quinazolin-4-yl]amino]ethyl]-1,2,4-triazol-1-yl]thiazole-5-carboxamide]
≥ 80%: percent control (mortality, anti-feedant effect or growth inhibition) at 200 ppm (Chilo suppressalis) | percent effect (mortality or growth inhibition) at 200 ppm (Diabrotica balteata) | percent effect (mortality or growth inhibition) at 200 ppm (Euschistus heros) | mortality at 12 ppm (Myzus persicae [1]) | percent effect (mortality or growth inhibition) at 200 ppm (Plutella xylostella) | percent control (mortality, anti-feedant effect or growth inhibition) at 200 ppm (Spodoptera littoralis)

C[C@@H](c1ncnn1-c1cc(C(N)=O)ncn1)N(C)c1ncnc2c(Br)cc(Br)cc12 [Compound P48, 6-[5-[(1S)-1-[(6,8-dibromoquinazolin-4-yl)-methyl-amino]ethyl]-1,2,4-triazol-1-yl]pyrimidine-4-carboxamide]
≥ 80%: percent control (mortality, anti-feedant effect or growth inhibition) at 200 ppm (Chilo suppressalis) | percent effect (mortality or growth inhibition) at 200 ppm (Diabrotica balteata) | percent effect (mortality or growth inhibition) at 200 ppm (Euschistus heros) | mortality at 12 ppm (Myzus persicae [1]) | percent effect (mortality or growth inhibition) at 200 ppm (Plutella xylostella) | percent control (mortality, anti-feedant effect or growth inhibition) at 200 ppm (Spodoptera littoralis)

Reference: patent publication US20260132125A1, “PESTICIDALLY ACTIVE FUSED BICYCLIC HETEROAROMATIC COMPOUNDS” (priority 2022, published 2026)
